SMILES strings stand for the structures.

One experiment deals with T1, Type-1 angiotensin II receptor (Bos taurus, UniProt P25104).
T1 sequence (P25104 whole entry): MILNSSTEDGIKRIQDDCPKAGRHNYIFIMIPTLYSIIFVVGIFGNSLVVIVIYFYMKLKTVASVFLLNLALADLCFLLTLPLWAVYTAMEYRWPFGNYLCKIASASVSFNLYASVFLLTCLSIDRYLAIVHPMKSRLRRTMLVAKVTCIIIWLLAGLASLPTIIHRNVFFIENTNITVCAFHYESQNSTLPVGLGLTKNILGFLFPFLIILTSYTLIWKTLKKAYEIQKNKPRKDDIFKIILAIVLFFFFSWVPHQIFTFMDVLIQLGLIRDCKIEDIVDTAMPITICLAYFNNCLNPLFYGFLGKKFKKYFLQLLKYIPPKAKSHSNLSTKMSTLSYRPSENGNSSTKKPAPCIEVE
The experiment can be described thus: Displacement of [125I]angiotensin 2 from type-1 angiotensin 2 receptor in Bos taurus (bovine) adrenal cortical membrane. The conditions noted are these: read-out: IC50.
As to `CCCCc1nc2ccc(C)c(C(=O)OCC)c2n1Cc1ccc(-c2ccccc2-c2nnn[nH]2)cc1`, the IC50 came out at 910 nM.
On the same count and under the same terms, for `CCCCc1nc2cccc(COC)c2n1Cc1ccc(-c2ccccc2-c2nn[nH]n2)cc1` the value was 600 nM; for `CCCCc1nc2cccc(CN(C)C)c2n1Cc1ccc(-c2ccccc2-c2nn[nH]n2)cc1`, 2400 nM.
The same measure, in the same setting: for `CCCCc1nc2ccc(C)c(C(=O)O)c2n1Cc1ccc(-c2ccccc2-c2nn[nH]n2)cc1` the value was 340 nM; for `CCCCc1nc2cccc(C(=O)OC)c2n1Cc1ccc(-c2ccccc2-c2nn[nH]n2)cc1`, 320 nM; for `CCCCc1nc2cc(C(=O)OC)ccc2n1Cc1ccc(-c2ccccc2-c2nn[nH]n2)cc1`, 740 nM.
On the same count and under the same terms, the same measure for `CCCCc1nc2ccc(OC)cc2n1Cc1ccc(-c2ccccc2-c2nn[nH]n2)cc1`: 1100 nM; for `CCCCc1nc2cc(Cl)ccc2n1Cc1ccc(-c2ccccc2-c2nn[nH]n2)cc1`: 1500 nM.
For `CCCCc1nc2cccc(CC(=O)O)c2n1Cc1ccc(-c2ccccc2-c2nn[nH]n2)cc1`, the IC50 turned out to be 2600 nM.
On the same count and under the same terms, for `CCCCc1nc2cccc(CC(=O)OCC)c2n1Cc1ccc(-c2ccccc2-c2nn[nH]n2)cc1` the value was 250 nM; for `CCCCc1nc2cc(Cl)cc(C(=O)OC)c2n1Cc1ccc(-c2ccccc2-c2nn[nH]n2)cc1`, 440 nM; for `CCCCc1nc2cccc(C(=O)OCC)c2n1Cc1ccc(-c2ccccc2-c2nn[nH]n2)cc1`, 1400 nM.
On the same count and under the same terms, the same measure for `CCCCc1nc2cccc(C(=O)O)c2n1Cc1ccc(-c2ccccc2C(=O)O)cc1`: 660 nM.
On the same count and under the same terms, the same measure for `CCCCc1nc2ccc(Cl)cc2n1Cc1ccc(-c2ccccc2-c2nn[nH]n2)cc1`: 3100 nM.
Consider `CCCCOC(=O)c1cccc2nc(CCCC)n(Cc3ccc(-c4ccccc4-c4nn[nH]n4)cc3)c12`, for which the IC50 is 1200 nM.
`CCCCc1nc2cccc(C)c2n1Cc1ccc(-c2ccccc2-c2nn[nH]n2)cc1`: the IC50 turned out to be 330 nM.
Still for that read-out and setting: the same measure for `CCCCc1nc2cc(C(=O)O)ccc2n1Cc1ccc(-c2ccccc2-c2nn[nH]n2)cc1`: 5500 nM; for `CCCCc1nc2cccc(C(=O)NC(C)C)c2n1Cc1ccc(-c2ccccc2-c2nn[nH]n2)cc1`: 540 nM.
Still for that read-out and setting: the same measure for `CCCCc1nc2cc(OC)ccc2n1Cc1ccc(-c2ccccc2-c2nn[nH]n2)cc1`: 910 nM; for `CCCCc1nc2cccc(O)c2n1Cc1ccc(-c2ccccc2-c2nn[nH]n2)cc1`: 1100 nM; for `CCCCc1nc2ccc(C(=O)OC)cc2n1Cc1ccc(-c2ccccc2-c2nn[nH]n2)cc1`: 440 nM.
On the same count and under the same terms, the same measure for `CCCCc1nc2cccc(OC)c2n1Cc1ccc(-c2ccccc2-c2nn[nH]n2)cc1`: 2800 nM.
In the case of `CCCCc1nc2c(C(=O)OC)cccc2n1Cc1ccc(-c2ccccc2-c2nn[nH]n2)cc1`, the IC50 came out at 7200 nM.
On the same count and under the same terms, for `CCCCc1nc2cccc(C(=O)O)c2n1Cc1ccc(-c2ccccc2-c2nnnn2C)cc1` the value was 3400 nM; for `CCCCc1nc2cccc(CO)c2n1Cc1ccc(-c2ccccc2-c2nn[nH]n2)cc1`, 450 nM.
The same measure, in the same setting: the same measure for `CCCCc1nc2ccc(C(=O)O)cc2n1Cc1ccc(-c2ccccc2-c2nn[nH]n2)cc1`: 9000 nM; for `CCCCc1nc2cc(C)cc(C(=O)O)c2n1Cc1ccc(-c2ccccc2-c2nn[nH]n2)cc1`: 1300 nM.
Same read-out and setting: for `CCCCc1nc2cc(C)cc(C(=O)OC)c2n1Cc1ccc(-c2ccccc2-c2nn[nH]n2)cc1` the value was 870 nM.
With `CCCCc1nc2ccccc2n1Cc1ccc(-c2ccccc2C(=O)O)cc1`, the IC50 was found to be 1100 nM.
On the same count and under the same terms, for `CCCCc1nc2ccccc2n1Cc1ccc(-c2ccccc2-c2nn[nH]n2)cc1` the value was 900 nM.

Still in this experiment, the particulars now being: read-out: pIC50 (converted).
As to `CCCCc1nc2ccc(C)c(C(=O)O)c2n1Cc1ccc(-c2ccccc2-c2nn[nH]n2)cc1`, the IC50 is 328 nM.
The same measure, in the same setting: the same measure for `CCCCc1nc2cccc(CC(=O)O)c2n1Cc1ccc(-c2ccccc2-c2nn[nH]n2)cc1`: 2820 nM; for `CCCCOC(=O)c1cccc2nc(CCCC)n(Cc3ccc(-c4ccccc4-c4nn[nH]n4)cc3)c12`: 1300 nM.
As for `CCCCc1nc2cc(C(=O)O)ccc2n1Cc1ccc(-c2ccccc2-c2nn[nH]n2)cc1`, the IC50 was 5620 nM.
On the same count and under the same terms, the same measure for `CCCCc1nc2ccccc2n1Cc1ccc(-c2ccccc2C(=O)O)cc1`: 110 nM.

The record behind these values is ChEMBL document CHEMBL3044772, “QSAR modeling of some substituted benzimidazole as Angotensin II AT1 receptor antagonist” (Med Chem Res, 2010).
